# Experiments:
# [1] = molecular target: 3',5'-cyclic-AMP phosphodiesterase 4B (Homo sapiens) (UniProt Q07343); test: Inhibition of recombinant His-tagged PDE4B expressed in Sf9 cells using cAMP as substrate at 30 uM preincubated for 15 mins measured after 1 hr by multilabel plate reader
# [2] = molecular target: 3',5'-cyclic-AMP phosphodiesterase 4B (Homo sapiens) (UniProt Q07343); test: Inhibition of recombinant His-tagged PDE4B expressed in Sf9 cells using cAMP as substrate at 10 uM preincubated for 15 mins measured after 1 hr by multilabel plate reader
# [3] = molecular target: 3',5'-cyclic-AMP phosphodiesterase 4B (Homo sapiens) (UniProt Q07343); test: Inhibition of recombinant His-tagged PDE4B expressed in Sf9 cells using cAMP as substrate at 3 uM preincubated for 15 mins measured after 1 hr by multilabel plate reader
# [4] = molecular target: 3',5'-cyclic-AMP phosphodiesterase 4B (Homo sapiens) (UniProt Q07343); test: Inhibition of recombinant His-tagged PDE4B expressed in Sf9 cells using cAMP as substrate at 1 uM preincubated for 15 mins measured after 1 hr by multilabel plate reader
# [5] = molecular target: 3',5'-cyclic-AMP phosphodiesterase 4B (Homo sapiens) (UniProt Q07343); test: Inhibition of recombinant His-tagged PDE4B expressed in Sf9 cells using cAMP as substrate at 0.3 uM preincubated for 15 mins measured after 1 hr by multilabel plate reader
# RAW264.7 [6] = test: Antiinflammatory activity in mouse RAW264.7 cells assessed as inhibition of LPS-induced TNFalpha challenge at 30 uM preincubated for 30 mins before LPS challenge by ELISA; format: functional
# RAW264.7 [7] = test: Antiinflammatory activity in mouse RAW264.7 cells assessed as inhibition of LPS-induced TNFalpha challenge at 10 uM preincubated for 30 mins before LPS challenge by ELISA; format: functional
# 3',5'-cyclic-AMP phosphodiesterase 4B (Homo sapiens), sequence (Q07343 whole entry): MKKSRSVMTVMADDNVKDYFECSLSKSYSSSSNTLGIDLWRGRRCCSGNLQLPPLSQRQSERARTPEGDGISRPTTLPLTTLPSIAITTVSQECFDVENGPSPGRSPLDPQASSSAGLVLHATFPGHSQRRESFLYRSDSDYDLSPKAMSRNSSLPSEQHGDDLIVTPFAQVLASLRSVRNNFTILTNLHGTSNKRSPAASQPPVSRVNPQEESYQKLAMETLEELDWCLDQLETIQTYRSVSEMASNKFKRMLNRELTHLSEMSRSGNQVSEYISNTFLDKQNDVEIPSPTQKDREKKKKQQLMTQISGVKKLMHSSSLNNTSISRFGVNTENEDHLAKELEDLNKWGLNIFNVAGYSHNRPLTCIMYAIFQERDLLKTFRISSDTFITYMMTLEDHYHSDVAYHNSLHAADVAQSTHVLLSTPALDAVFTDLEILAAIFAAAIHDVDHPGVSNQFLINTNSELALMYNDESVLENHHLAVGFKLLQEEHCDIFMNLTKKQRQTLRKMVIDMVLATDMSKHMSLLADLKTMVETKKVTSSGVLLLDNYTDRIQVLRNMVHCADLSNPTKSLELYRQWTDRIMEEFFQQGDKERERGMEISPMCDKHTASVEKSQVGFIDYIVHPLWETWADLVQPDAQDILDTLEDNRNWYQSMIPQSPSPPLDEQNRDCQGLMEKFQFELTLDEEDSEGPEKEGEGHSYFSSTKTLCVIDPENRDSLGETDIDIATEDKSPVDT
Structure (SMILES),inhibition [1],other results
O=Cc1cc2ccccc2n(CC#Cc2ccc([N+](=O)[O-])cc2)c1=O,4.15%,–
O=Cc1cc2ccccc2n(CC#Cc2cccc([N+](=O)[O-])c2)c1=O,22.6%,–
CC1=CC(C)(C)N(CC#Cc2cccc([N+](=O)[O-])c2)c2cc(Oc3ccccc3)c(NS(C)(=O)=O)cc21,41.6%,–
O=Cc1cc2ccccc2n(CC#Cc2ccccc2Cl)c1=O,54.4%,–
CC1=CC(C)(C)N(CC#Cc2ccccc2Cl)c2cc(Oc3ccccc3)c(NS(C)(=O)=O)cc21,40.3%,–
CC1=CC(C)(C)N(CC#Cc2ccc([N+](=O)[O-])cc2)c2cc(Oc3ccccc3)c(NS(C)(=O)=O)cc21,35.1%,–
Cc1ccccc1C#CCn1c(=O)c(C=O)cc2ccccc21,45.5%,–
COc1ccc(C#CCn2c(=O)c(C=O)cc3ccccc32)cc1,22.6%,–
CC1=CC(C)(C)N(CC#Cc2ccccc2[N+](=O)[O-])c2cc(Oc3ccccc3)c(NS(C)(=O)=O)cc21,37.4%,–
O=Cc1cc2ccccc2n(CC#Cc2ccc(Cl)cc2)c1=O,26.5%,–
COC(=O)c1ccccc1C#CCN1c2cc(Oc3ccccc3)c(NS(C)(=O)=O)cc2C(C)=CC1(C)C,33.1%,inhibition [2]: 23%; inhibition [3]: 16%; inhibition [4]: 11%; inhibition [5]: 10%; inhibition at 30 µM (RAW264.7 [6]): 47%; inhibition at 10 µM (RAW264.7 [7]): 35%
